Data reported in article PMC8795197, “Safety and activity of WX-0593 (Iruplinalkib) in patients with ALK- or ROS1-rearranged advanced non-small cell lung cancer: a phase 1 dose-escalation and dose-expansion trial” (Signal Transduction and Targeted Therapy, 2022).
Several values for one entry are separate records, joined by “and”; a condition that tells them apart may be missing. Equal values may be shown once. Entries after “also recorded” stand apart in the source; their conditions may differ. Read-outs that look alike come from different tables or passages of the source.

Key:
[1] = Single-dose toxicity study (acute toxicity)
Ba/F3 ALK-F1174V = assay: Growth of transfected Ba/F3 cells (CellTiter-Glo, 3 days); assay type: cell-based; settings: Mus musculus, BaF3; ALK-F1174V; read-out: IC50
Procedure: (§1) Harvest cells during the logarithmic growth period and count cells using blood counting chamber. Adjust cell concentration with culture medium. Add 90µl cell suspensions to two 96-well plates to the final cell density as described before. Incubate the plate overnight in humidified incubator at 37℃ with 5% CO2. Dispense 10µl drug solution (10×) to each well (triplicate for each concentration), and the DMSO final concentration in culture medium is 0.1% [v/v]. Culture the plates for 3 days. On Day 3, Read luminescent using Multi Label Reader. The software of GraphPad Prism was used to calculate IC50. The graphical curves were fitted using a nonlinear regression model with a sigmoidal dose response.

Ba/F3 ALK-I1171S = assay: as above; assay type: cell-based; settings: Mus musculus, BaF3, ALK-I1171S, read-out: IC50
Procedure: as §1

Ba/F3 ALK-T1151Tins = assay: as above; assay type: cell-based; settings: Mus musculus, BaF3; ALK-T1151Tins; read-out: IC50
Procedure: as §1

Ba/F3 ALK-G1202del = assay: as above; assay type: cell-based; settings: Mus musculus, BaF3; ALK-G1202del; read-out: IC50
Procedure: as §1

Ba/F3 ALK-L1152P = assay: as above; assay type: cell-based; settings: Mus musculus, BaF3; ALK-L1152P; read-out: IC50
Procedure: as §1

Ba/F3 ALK-V1180L = assay: as above; assay type: cell-based; settings: Mus musculus, BaF3; ALK-V1180L; read-out: IC50
Procedure: as §1

[2] = tested on: advanced NSCLC patients with ALK or ROS1 rearrangement; assay: Phase 1 trial: safety (adverse events, DLT, MTD; NCI CTCAE 4.03); assay type: in vivo
Procedure: This FIH, single arm, multicenter, phase 1 study was conducted in advanced NSCLC patients with ALK or ROS1 rearrangement, composed of the dose-escalation and dose-expansion phases. The dose-escalation and dose-expansion phases were conducted at 4 and 38 centers in mainland China, respectively (Supplementary Table S1), and were done in compliance with the Declaration of Helsinki and International Council for Harmonisation guidelines for Good Clinical Practice. The study protocol and amendments were approved by the independent ethics committee at every participating site. Written informed consent was provided by all patients before being screened for enrolment.
ALK and ROS1 rearrangements were established by immunohistochemistry, reverse transcription-polymerase chain reaction (PCR), amplification refractory mutation system-PCR, fluorescence in situ hybridization, or next-generation sequencing. Patients must have at least one measurable lesion as defined by Response Evaluation Criteria in Solid Tumors (RECIST) version 1.1. Other key eligibility criteria included an age of 18–70 years, an Eastern Cooperative Oncology Group performance status of 0 or 1, a life expectancy of at least 12 weeks, and adequate organ function, including adequate function of bone marrow (absolute neutrophil count ≥1.5 × 10^9/L, platelets ≥100 × 10^9/L, hemoglobin ≥90 g/L) and liver function (total bilirubin ≤1.5× upper limit of normal [ULN], ALT and AST ≤2.5× ULN [≤5.0× ULN for liver metastasis patients]).
In the dose-escalation phase, a standard 3 + 3 design was used to determine the MTD.[29]
Three patients were assigned to each dose level.
Patients continued treatment until documented disease progression, unacceptable toxicity, withdrawal of consent, the start of a new anticancer treatment, death, loss of follow-up, or end of the study (whichever occurred first). Patients were permitted to continue treatment after progression if they were still experiencing clinical benefit, at the discretion of the investigator.
For grade ≥3 AEs (also including grade ≥2 cardiac dysfunction and renal dysfunction, etc.), dose interruption could occur.
Patients performed imaging evaluation at baseline, with computed tomography or magnetic resonance imaging of the chest, abdomen, pelvis, and brain. […] In the dose-expansion phase, tumor response was assessed every 6 weeks until 48 weeks and every 12 weeks thereafter until documented disease progression. If responses (CR or PR) were observed, repeat assessments were required to confirm the responses 4 weeks after the initial evaluation. Tumor responses were assessed by local investigators according to RECIST 1.1.
Safety parameters included TEAEs, SAEs, and TRAEs.

[3] = TEAE, Grade 1–2, total (n = 152)
[4] = TEAE, ≥Grade 3, total (n = 152)
[5] = TEAE, ≥Grade 3, dose: 30, 60, 90, 120, 180, 240, 300 mg
[6] = TRAE, ≥grade 3, dose: 30, 60, 90, 120, 180, 240, 300 mg

COc1cc(N2CCC3(CCN(C)CC3)CC2)ccc1Nc1ncc(Cl)c(Nc2ccccc2P(C)(C)=O)n1 [WX-0593]
drug exposure at MTD as multiple of that at the effective dose ([1]; female animals): 13.7 times
drug exposure at MTD as multiple of that at the effective dose ([1]; male animals): 9.5 times
IC50 (Ba/F3 ALK-F1174V): 22.3 nM
IC50 (Ba/F3 ALK-I1171S; first listing (r12)): 32 nM
IC50 (Ba/F3 ALK-I1171S; second listing (r19)): 21.4 nM
IC50 (Ba/F3 ALK-T1151Tins): 12 nM
IC50 (Ba/F3 ALK-G1202del): 930 nM
IC50 (Ba/F3 ALK-L1152P): 1.5 nM
IC50 (Ba/F3 ALK-V1180L): 8.4 nM
Dizziness, patients n (%) [2]: 0
ALT elevated, patients n (%) [2, 3]: 39 (26%)
AST elevated, patients n (%) [2, 3]: 41 (27%)
CPK elevated, patients n (%) [2, 3]: 31 (20%)
Dizziness, patients n (%) [2, 3]: 16 (11%)
Headache, patients n (%) [2, 3]: 14 (9%)
Hypertension, patients n (%) [2, 3]: 24 (16%)
Hypertriglyceridemia, patients n (%) [2, 3]: 32 (21%)
Upper respiratory infection, patients n (%) [2, 3]: 16 (11%)
diarrhea, patients n (%) [2, 3]: 21 (14%)
hypercholesterolemia, patients n (%) [2, 3]: 42 (28%)
hyperlipidemia, patients n (%) [2, 3]: 21 (14%)
nausea, patients n (%) [2, 3]: 48 (32%)
rash, patients n (%) [2, 3]: 19 (13%)
γ-GGT elevated, patients n (%) [2, 3]: 12 (8%)
Headache, patients n (%) ([2]; TEAE, all grade, total (n = 152)): 14 (9%)
ALT elevated, patients n (%) [2, 4]: 6 (4%)
AST elevated, patients n (%) [2, 4]: 6 (4%)
CPK elevated, patients n (%) [2, 4]: 0
Headache, patients n (%) [2, 4]: 0
Hypertension, patients n (%) [2, 4]: 9 (6%)
Hypertriglyceridemia, patients n (%) [2, 4]: 5 (3%)
Upper respiratory infection, patients n (%) [2, 4]: 1 (1%)
diarrhea, patients n (%) [2, 4]: 1 (1%)
hypercholesterolemia, patients n (%) [2, 4]: 5 (3%)
hyperlipidemia, patients n (%) [2, 4]: 1 (1%)
nausea, patients n (%) [2, 4]: 0
rash, patients n (%) [2, 4]: 1 (1%)
vomiting, patients n (%) [2, 4]: 0
γ-GGT elevated, patients n (%) [2, 4]: 5 (3%)
CPK elevated, patients n (%) [2, 5]: 0
Dizziness, patients n (%) [2, 5]: 0
Headache, patients n (%) [2, 5]: 0
nausea, patients n (%) [2, 5]: 0
vomiting, patients n (%) [2, 5]: 0
ALT elevated, patients n (%) ([2]; TRAE, grade 1-2, total (n=152)): 38(25%)
AST elevated, patients n (%) ([2]; TRAE, grade 1-2, total (n=152)): 41(27%)
CPK elevated, patients n (%) ([2]; TRAE, grade 1-2, total (n=152)): 25(16%)
Hypertension, patients n (%) ([2]; TRAE, grade 1-2, total (n=152)): 18(12%)
Hypertriglyceridemia, patients n (%) ([2]; TRAE, grade 1-2, total (n=152)): 28(18%)
diarrhea, patients n (%) ([2]; TRAE, grade 1-2, total (n=152)): 21(14%)
hypercholesterolemia, patients n (%) ([2]; TRAE, grade 1-2, total (n=152)): 39(26%)
hyperlipidemia, patients n (%) ([2]; TRAE, grade 1-2, total (n=152)): 15(10%)
nausea, patients n (%) ([2]; TRAE, grade 1-2, total (n=152)): 43(28%)
rash, patients n (%) ([2]; TRAE, grade 1-2, total (n=152)): 15(10%)
vomiting, patients n (%) ([2]; TRAE, grade 1-2, total (n=152)): 37(24%)
γ-GGT elevated, patients n (%) ([2]; TRAE, grade 1-2, total (n=152)): 10(7%)
CPK elevated, patients n (%) ([2]; TRAE, ≥grade 3, total (n=152)): 0
diarrhea, patients n (%) ([2]; TRAE, ≥grade 3, total (n=152)): 1(1%)
hypercholesterolemia, patients n (%) ([2]; TRAE, ≥grade 3, total (n=152)): 1(1%)
hyperlipidemia, patients n (%) ([2]; TRAE, ≥grade 3, total (n=152)): 0
nausea, patients n (%) ([2]; TRAE, ≥grade 3, total (n=152)): 0
rash, patients n (%) ([2]; TRAE, ≥grade 3, total (n=152)): 1(1%)
vomiting, patients n (%) ([2]; TRAE, ≥grade 3, total (n=152)): 0
CPK elevated, patients n (%) [2, 6]: 0
hyperlipidemia, patients n (%) [2, 6]: 0
nausea, patients n (%) [2, 6]: 0
vomiting, patients n (%) [2, 6]: 0
maximum tolerated dose (MTD) ([2]; dose-escalation 30–300 mg): could not be identified; also recorded: not reached
dose-limiting toxicities (DLTs) ([2]; dose-escalation, 300 mg, in 1 of 3 patients: grade 3 QT interval prolonged, grade 2 chronic heart failure): Two
AE led to dose interruption, patients n (%) ([2]; total (n=152)): 30(20%)
AE led to dose interruption, treatment-related, patients n (%) ([2]; total (n=152)): 30 (20%) and 27(18%)
AE led to dose reduction, treatment-related, patients n (%) ([2]; total (n=152)): 4 (3%)
AE led to treatment termination, patients n (%) ([2]; total (n=152)): 11(7%)
Adverse events, total, patients n (%) ([2]; total (n=152)): 148 (97%)
Death during treatment, not related with disease progression, patients n (%) ([2]; total (n=152)): 6(4%)
Death during treatment, related with disease progression, patients n (%) ([2]; total (n=152)): 1(1%)
Discontinuation due to adverse event, patients n (%) ([2]; total (n=152)): 11(7%)
Discontinuation due to adverse event, treatment-related, patients n (%) ([2]; total (n=152)): 8(5%)
Serious adverse event, patients n (%) ([2]; total (n=152)): 25 (16%)
≥grade 3 adverse event, patients n (%) ([2]; total (n=152)): 53 (35%)
